Experimental data from patent US20010044102A1, “ASSAYS AND REAGENTS FOR IDENTIFYING MODULATORS OF CDC25-MEDIATED MITOTIC ACTIVATION” (priority 1996, published 2001).

What was measured:
cdc25 = settings: cited from earlier work
Val 5 cells = test: Myc-driven apoptosis and DNA replication in MycER cells treated with cdc25A antisense oligonucleotide, scored by TUNEL; format: cell-based; settings: MycER induced by β-estradiol, 0.1% serum, shift from 39 to 32° C., FIG. 5B
Description: Finally, to investigate whether induction of the cdc25A gene is essential for Myc-driven apoptosis, we incubated Val 5 cells after MycER induction by β-estradiol with an antisense cdc25A oligonucleotide. Following this incubation, cells were shifted from 39 to 32° C., activating wild type p53 function, which normally results in apoptosis (Wagner et al. (1994) Genes Dev. 8:2817-2830). A scrambled oligonucleotide with the same nucleotide content was used in control experiments. We observed that both apoptosis and DNA replication was inhibited by the treatment with the antisense, but not with scrambled (control) oligonucleotides (FIG. 5B).
Human cdc25A, B and C under control of CMV promoter and pCMV CD20 has been described (Galaktionov et al. (1995) Science 269:1575-1577). […] Apoptotic figures were scored 24 hours later upon microscopic investigation of the cultures based on CD20 staining, indicative of successful transfection (more than 2%, usually 8-10%), and visible morphological changes indicative of cell death (membrane blebbing, chromatin condensation, etc.). […] 48 hours after shifting to 0.1% serum, MycER fusion protein was induced by the addition of β-estradiol and cell incubation continued for another 24 hours, at which point cells were photographed and apoptosis was scored by TUNEL.

## CN1C2CC3C1C1C(C4=C(C(=O)C(N)=CC4=O)C(CO)N1C2C#N)N1CCOC31 (stereo not drawn) [dnacin A1]
cdc25
  cdc25 inhibitor (previously described in the literature): cdc25 inhibitors

## CN1C2CC3C1C1C(C4=C(C(=O)C(N)=CC4=O)C(CO)N1C2O)N1CCOC31 (stereo not drawn) [dnacin B1]
cdc25
  cdc25 inhibitor (previously described in the literature): cdc25 inhibitors

## scrambled oligonucleotide: scrambled oligonucleotide (GGTACCTTGACCCGGGCTCG) with the same nucleotide content, used as control (chemistry not given here)
Val 5 cells
  DNA replication: not
